# Experimental data taken from patent US8318801B2, “Cinnamic compounds and derivatives therefrom for the inhibition of histone deacetylase” (Naturewise Biotech & Medicals Corporation, priority 2009, dated 2012).
# “Also recorded” adds a separate entry of the source.
# Tests used:
# tumor cell lines = settings: cited from earlier work
# Human glioma Hs683 cells = test: Inhibition of cancer cell growth; assay type: cell-based; settings: Hs683 cells, 1.0, 2.0 and 4.0 μg/mL, 72 hours (FIG. 8)
# Experimental: Their results were counted by a trypan blue exclusion assay (see FIG. 8(e)).
# (§1) Five cancer cell lines, Rat C6 giloma cells, Human breast cancer MCF-7 cells, Human glioma Hs683 cells, Human glioblastoma 05-MG cells, and Human lung cancer A549 cells, were cultured in Dulbecco's modified Eagle's medium (DMEM; Gibco) containing 10% fetal bovine serum (FBS) and 1% penicillin/streptomycin, and were kept at 37° C. in a humidified atmosphere of 95% air and 5% CO2. Human breast cancer. MDA-MB-231 cells were cultured in L-15 medium (Gibco) containing 10% fetal bovine serum (FBS), 1% penicillin/streptomycin, and 2 mM glutamine, and were maintained at 37° C. in a humidified atmosphere of 95% air and 0% CO2. For these experiments, the cells were seeded in 6-well plates or a 60-mm dish. After 24 hours, the cells were treated with different concentrations of the various compounds. […] Human glioblastoma 05-MG cells were treated with NBM-C-BCX-OS01 (1.0, 2.0, 4.0 μg/mL) and NBM-C-BMX-OS01 (1.0, 2.0, 4.0 μg/mL) for 72 hours (see FIG. 5(e)). […] The results were counted by a trypan blue exclusion assay (see FIG. 6(b)).
# [1] = tested on: human breast cancer MDA-MB-231 cells; test: Inhibition of cancer cell growth and change of morphology; assay type: cell-based; settings: for inhibition of MDA-MB-231 cells: MDA-MB-231 cells (FIG. 9); for change of cell morphology / inhibition of cell growth: MDA-MB-231 cells; for change of cell morphology: 72 hours (FIG. 6(a)); for inhibition of cell growth: various concentrations, 72 hrs (FIG. 6(a))
# Experimental: Their results were counted by a trypan blue exclusion assay (see FIG. 9(f)).
# as §1
# [2] = tested on: Human lung cancer A549 cells; test: Cell cycle analysis by flow cytometry (propidium iodide); assay type: cell-based; settings: A549 cells (FIG. 10(a), (b))
# Experimental: Human lung cancer A549 cells, Human glioma Hs683 cells and Human glioblastoma 05-MG cells were seeded 1×10^6 cells in a 100-mm dish. After 24 hours of incubation in DMEM+10% BSA, Human lung cancer A549 cells were treated with NBM-HB-OS01 (2.5, 5.0, 7.5, 10.0 μg/mL) for 24 hours and were treated with NBM-C-BCX-OS01 (2.5, 5.0, 7.5 μg/mL) and NBM-C-BMX-OS01 (2.5, 5, 7.5 μg/mL) for 72 hours. Human glioblastoma 05-MG cells were treated with NBM-C-BCX-OS01 (1.0, 2.0, 4.0 μg/mL) and NBM-C-BMX-OS01 (1.0, 2.0, 4.0 μg/mL) for 72 hours. Human glioma Hs683 cells were treated with NBM-C-BCX-OS01 (1.0, 2.0, 4.0 μg/mL). For cell cycle analysis, cells were fixed in 80% ethanol for 1 hour (or overnight) at −20° C. and then incubated with 2 μg/mL RNase A for 30 minutes at 37° C. Cells were stained with propidium iodide ([…] PI) in PBS and analyzed using a Becton Dickinson flow cytometer, BD FACScan and CellQuest acquisition and analysis programs. […] Human glioma Hs683 cells were treated with NBM-C-BCX-OS01 (1.0, 2.0, 4.0 μg/mL) for 72 hours.
# [3] = tested on: Human breast cancer MCF-7 cells; test: Cell cycle analysis by flow cytometry; assay type: cell-based; settings: MCF-7 cells (FIG. 10(c) to (e))
# Rat C6 glioma cells = test: Inhibition of cancer cell growth and change of morphology; assay type: cell-based; settings: Rat C6 glioma cells
# Experimental: (§2) Three cancer cell lines, Rat C6 giloma cells, Human breast cancer MCF-7 cells, and Human lung cancer A549 cells, were cultured in Dulbecco's modified Eagle's medium (DMEM; Gibco) containing 10% fetal bovine serum (FBS) and 1% penicillin/streptomycin. All three cell lines were maintained at 37° C. in a humidified atmosphere of 95% air and 5% CO2. For the experiments, the cells were seeded in 6-well plates. After 24 hours, the cells were treated with different concentrations of the various compounds.
# as §1
# [4] = tested on: Human lung cancer A549 cells; test: Inhibition of cancer cell growth; assay type: cell-based; settings: 72 hrs, NBM-C-BX-OS01 7.5, others 2.5, 5.0, 7.5 μg/mL (FIG. 5(b))
# Experimental: as §2, §1
# [5] = tested on: Human glioblastoma 05-MG cells; test: Inhibition of cancer cell growth; assay type: cell-based; settings: 05-MG cells, 1.0, 2.0, 4.0 μg/mL, 72 hrs (FIG. 5(e))
# Experimental: as §1
# [6] = tested on: acetyl-Histone H3, acetyl-Histone H4, acetyl-tubulin, p21, CTPS, Gelsolin, Hsp90, acetyl-Hsp90 in Human glioma Hs683 cells; test: Immunoblotting of histones and HDAC associated proteins; assay type: cell-based; settings: Hs683 cells, 1.0, 2.0, 4.0 μg/mL
# Experimental: Human glioma Hs683 cells were seeded at 5×10^5 cells in a 60-mm dish or 1×10^6 cells in a 100-mm dish. After 24 hours, Human glioma Hs683 cells were treated with different doses of NBM-C-BCX-OS01, NBM-C-BMX-OS01 (1.0, 2.0, 4.0 μg/mL), and vorinostat (SAHA, 5 μM) for 72 hours. Lysates of Hs683 cells were prepared for the immunoblotting of acetyl-Histone H3 (Cell Signaling Technology, Inc.), acetyl-Histone H4 (Upstate), acetyl-tubulin (Sigma Chemical Co.), p21 (BD Pharmingen Technology, Inc.), CTPS (ABNOVA TAIWAN Corporation), Gelsolin (Sigma Chemical Co.), Hsp90 (Cell Signaling Technology, Inc.), acetyl-Hsp90 (ROCKLAND, Inc.) and actin (Sigma Chemical Co.). Proteins were detected by chemiluminescence (ECL, Amersham). […] SAHA was used as a positive control and β-actin as an internal control (see FIG. 7(b)).
structure (smiles),measurement,setting,value
Cc1[nH]c2ccccc2c1CCNCc1ccc(/C=C/C(=O)NO)cc1 [LBH589],growth inhibition and regression by triggering apoptosis,tumor cell lines,induces growth inhibition and regression
"COc1ccc(/C=C\C(=O)NO)c(OCc2ccc(Br)cc2)c1CC=C(C)C [NBM-C-BBX-OS01, (Z)-2-(4-Bromobenzoxy)-3-prenyl-4-methoxy-N-hydroxycinamide]",inhibition of cell growth,Human glioma Hs683 cells,inhibition of cell growth
same,inhibition of MDA-MB-231 cells,[1],inhibition of human breast cancer MDA-MB-231 cells
same,cell cycle arrest phase,[2],arrested the human lung cancer A549 cells on the S and G2/M phases
same,cell cycle arrest phase,[3],arrested the human breast cancer MCF-7 cells on the S and G2/M phases
"COc1ccc(/C=C/C(=O)Nc2ccccc2N)c(OCc2ccc(Cl)cc2)c1CC=C(C)C [NBM-C-BCA-OS01, (E)-2-(4-Chlorobenzoxy)-3-prenyl-4-methoxy-N-(2-aminophenyl) cinamide]",inhibition of cell growth,"Rat C6 glioma cells; 7.5 μg/mL, 48 hrs (FIG. 4)",inhibited the Rat C6 glioma cell growth
same,inhibition of cell growth,"Rat C6 glioma cells; 7.5 μg/mL, 48 hrs (FIG. 4), listed as NBM-C-BA-OS01 (17d)",inhibited the Rat C6 glioma cells growth
"COc1ccc(/C=C\C(=O)NO)c(OCc2ccc(F)cc2)c1CC=C(C)C [NBM-C-BFX-OS01, (Z)-2-(4-Fluorobenzoxy)-3-prenyl-4-methoxy-N-hydroxycinamide]",change of cell morphology,[1],changed the morphology of the cells
same,inhibition of cell growth,[1],inhibition of the cell growth of human breast cancer MDA-MB-231 cells was observed; also recorded: inhibited the growth
"COc1ccc(COc2c(/C=C/C(=O)Nc3ccccc3N)ccc(OC)c2CC=C(C)C)cc1 [NBM-C-BMA-OS01, (E)-2-(4-Methoxyhenzoxy)-3-prenyl-4-methoxy-N-(2-aminophenyl) cinamide]",inhibition of cell growth,"Rat C6 glioma cells; 7.5 μg/mL, 48 hrs (FIG. 4)",inhibited the Rat C6 glioma cell growth
"COc1ccc(COc2c(/C=C\C(=O)NO)ccc(OC)c2CC=C(C)C)cc1 [NBM-C-BMX-OS01, (Z)-2-(4-Methoxyhenzoxy)-3-prenyl-4-methoxy-N-hydroxycinamide]",inhibition of cell growth,"Rat C6 glioma cells; 24 hrs, NBM-C-BA-OS01 5 μg/mL, others 2.5, 5.0 μg/mL (FIG. 5(a))",inhibited the cell growth
same,"inhibition of cell growth, similar to dose-dependent A549 result","Rat C6 glioma cells; various concentrations, 24 hrs (FIG. 5(c))",the results were similar
same,cell growth inhibition,[4],induced A549 cells growth inhibition in a dose-dependent manner; also recorded: induced A549 cell growth inhibition in dose-dependent amounts
same,cell growth inhibition,[5],Cell growth inhibition was observed
same,change of cell morphology,[1],changed the morphology of the cells
same,inhibition of cell growth,[1],inhibition of the cell growth of human breast cancer MDA-MB-231 cells was observed; also recorded: inhibited the growth
same,CTPS protein level,[6]; 72 hrs (FIG. 7(a)),decreased in a dose-dependent manner
same,Hsp90 protein level,[6]; 72 hrs (FIG. 7(a)),decreased in a dose-dependent manner
same,induction (increase) of acetylated Hsp90 protein,[6]; 72 hrs (FIG. 7(a)),detected in a dose-dependent manner; also recorded: observed in a dose-dependent manner
same,induction (increase) of gelsolin protein,[6]; 72 hrs (FIG. 7(a)),detected in a dose-dependent manner; also recorded: observed in a dose-dependent manner
same,expression of acetylated Histone H3,[6]; 72 hrs (FIG. 7(b)),significantly increased in a dose-dependent manner; also recorded: induced in a dose-dependent manner
same,expression of acetylated Histone H4,[6]; 72 hrs (FIG. 7(b)),significantly increased in a dose-dependent manner; also recorded: induced in a dose-dependent manner
same,expression of acetylated tubulin,[6]; 72 hrs (FIG. 7(b)),significantly increased in a dose-dependent manner; also recorded: induced in a dose-dependent manner
same,expression of p21,[6]; 72 hrs (FIG. 7(b)),significantly increased in a dose-dependent manner; also recorded: induced in a dose-dependent manner
CC(C)=CCOc1c(OCc2ccc(Cl)cc2)c(/C=C\C(=O)NO)cc2ccoc12 [NBM-I-BCX-OS01],inhibition of cell growth,Human glioma Hs683 cells,inhibition of cell growth
same,inhibition of MDA-MB-231 cells,[1],inhibition of human breast cancer MDA-MB-231 cells
same,cell cycle arrest phase,[2],arrested the human lung cancer A549 cells on the S and G2/M phases
same,cell cycle arrest phase,[3],arrested the human breast cancer MCF-7 cells on the S and G2/M phases
"COc1ccc(/C=C/C(=O)NO)c(OCc2ccc(Br)cc2)c1CC=C(C)C [NBM-T-BBX-OS01, (E)-2-(4-Bromobenzoxy)-3-prenyl-4-methoxy-N-hydroxy cinamide]",inhibition of cell growth,Human glioma Hs683 cells,inhibition of cell growth
same,inhibition of MDA-MB-231 cells,[1],inhibition of human breast cancer MDA-MB-231 cells
same,cell cycle arrest phase,[2],arrested the human lung cancer A549 cells on the S and G2/M phases
same,cell cycle arrest phase,[3],arrested the human breast cancer MCF-7 cells on the S and G2/M phases
"COc1ccc(/C=C/C(=O)NO)c(OCc2ccc(Cl)cc2)c1CC=C(C)C [NBM-T-BCX-OS01, (E)-2-(4-Chlorobenzoxy)-3-prenyl-4-methoxy-N-hydroxy cinamide]",inhibition of cell growth,Human glioma Hs683 cells,inhibition of cell growth
same,inhibition of MDA-MB-231 cells,[1],inhibition of human breast cancer MDA-MB-231 cells
same,cell cycle arrest phase,[3],arrested the human breast cancer MCF-7 cells on the S and G2/M phases
"COc1ccc(COc2c(/C=C/C(=O)NO)ccc(OC)c2CC=C(C)C)cc1 [NBM-T-BMX-OS01, (E)-2-(4-Methoxyhenzoxy)-3-prenyl-4-methoxy-N-hydroxy cinamide]",inhibition of cell growth,Human glioma Hs683 cells,inhibition of cell growth
same,inhibition of MDA-MB-231 cells,[1],inhibition of human breast cancer MDA-MB-231 cells
same,cell cycle arrest phase,[2],arrested the human lung cancer A549 cells on the S and G2/M phases
same,cell cycle arrest phase,[3],arrested the human breast cancer MCF-7 cells on the S and G2/M phases
